# Reference: patent publication US20150274639A1, “METHODS OF USE FOR COMPOSITIONS COMPRISING A BIOCIDAL POLYAMINE” (Curza Global, LLC, priority 2013, published 2015)
# Values joined by “and” are separate entries in the source; they are usually repeats but may differ in a detail not shown here. Identical values can stand only once.
# Experiments:
# MRSA biofilm [1] = assay: MBEC assay (Calgary Biofilm Device), 100% eradication (Example 2); type: cell-based, methicillin-resistant Staphylococcus aureus; conditions: eradicate 100% of detectable biofilm, listed as PBC-51
# Experimental: (§1) In addition to determining the MIC, the minimum biofilm eradication concentration (MBEC) of PBC-51 was also determined. The MBEC was determined using the MBEC assay, formerly known as the Calgary Biofilm Device, developed by Innovotech. In this instance, the MBEC was defined as the amount of antimicrobial required to eradicate 100% of detectable biofilm after being grown in the MBEC device. To grow the biofilms within this device, 150 μL of solution containing a concentration of 10^5 cells/mL were inoculated into each well of a 96-well plate. A lid containing 96 pegs was placed onto the plate and incubated for 24 hours at 37° C. while being shaken at 110 rpm. Biofilms developed on the surface of the polystyrene pegs within the 96-well plate. After 24 hours, each peg contained between 10^5 and 10^6 cells in well-established biofilms. The lid with pegs was transferred to a 96-well plate that contained 200 μL of varying concentrations of the compound and was incubated at 37° C. for an additional 24 hours. The plate was then sonicated, and the biofilms quantified using a 10-fold dilution series to determine the MBEC.
# MRSA [2] = assay: MIC, CLSI M26-A microdilution (Example 2); type: cell-based, methicillin-resistant Staphylococcus aureus; conditions: Staphylococcus aureus, 10^5 to 10^2 cells/mL in 24 hours
# Experimental: (§2) The second test determined the minimum inhibitory concentration (MIC) of the compound against MRSA and P. aeruginosa ATCC 27853. […] This definition was consistent with the Clinical and Laboratory Standards Institute (CLSI). More specifically, the microdilution method as outlined in the M26-A CLSI guideline was used. All tests were performed with cation adjusted Mueller Hinton broth.
# [3] = system: P. aeruginosa ATCC 27853 biofilm; assay: MBEC assay (Calgary Biofilm Device), 100% eradication (Example 2); type: cell-based, Pseudomonas aeruginosa; conditions: eradicate 100% of detectable biofilm, listed as PBC-51
# Experimental: as §1
# MRSA biofilm [4] = assay: EBEC on PEEK membranes, 100% eradication (Example 2); type: cell-based, methicillin-resistant Staphylococcus aureus; conditions: PEEK membrane, eradicate all detectable amounts (100%), listed as PBC-51
# Experimental: (§3) The fourth test that was performed was the effective biofilm eradication concentration (EBEC). To determine the EBEC, biofilms of MRSA and P. aeruginosa ATCC 27853 were grown on the surface of PEEK membranes using a previously established protocol. Briefly, 500 mL of brain heart infusion (BHI) broth were inoculated with 10^5 cells/mL of MRSA or P. aeruginosa. BHI broth was placed into a membrane biofilm reactor and placed on a hot plate set at 34° C. for 24 hours with a stir bar rotating at 130 rpm. Following the initial 24-hour growth period, a 10% BHI broth solution was flowed through the reactor at a rate of 6.944 mL/min for another 24 hours. After 48 hours of growth, each PEEK membrane had biofilm growth on it. In this experiment, there were ˜2×10^11 cells of MRSA per PEEK membrane and −2×10^10 cells of P. aeruginosa per PEEK membrane. The EBEC was defined as the concentration of the compound that was required to eradicate all detectable amounts (100%) of bacteria within the biofilms.
# [5] = system: Pseudomonas aeruginosa ATCC 27853; assay: Zones of inhibition on cation adjusted Mueller Hinton agar (Example 2); type: cell-based; conditions: 50 μL drop on P. aeruginosa lawn, 37° C., 24 hours
# Experimental: (§4) A compound was screened for its ability to create zones of inhibition on cation adjusted Mueller Hinton agar. It is believed that the compound of Example 2 may be represented by the structure disclosed in FIG. 4H. To perform this test, lawns of methicillin-resistant Staphylococcus aureus (MRSA) or Pseudomonas aeruginosa ATCC 27853 were made on cation adjusted Mueller Hinton agar using standard microbiological techniques. Immediately after plating bacteria on agar, a 50 μL drop of the compound was placed onto the agar surface. The compound was tested in duplicate at 100 μg/mL, 50 μg/mL, 25 μg/mL and 10 μg/mL. All plates were incubated at 37° C. for 24 hours.
# P. aeruginosa ATCC 27853 = assay: MIC, CLSI M26-A microdilution (Example 2); type: cell-based; conditions: Pseudomonas aeruginosa, ATCC27853, 10^5 to 10^2 cells/mL in 24 hours
# Experimental: as §2
# [6] = system: biofilms of MRSA and P. aeruginosa; assay: Visual observation of biofilm dispersal from PEEK membranes; type: cell-based; conditions: 300, 200 and 100 μg/mL
# Experimental: Initial tests based on visual observation were performed to determine the ability of the compound to disperse biofilms. This was done by observing the biofilms of MRSA and P. aeruginosa that had grown on the surface of PEEK membranes after they had been placed in three separate concentrations of the compound (300 μg/mL, 200 μg/mL and 100 μg/mL). Biofilms were observed every 30 minutes to see if they separated from the PEEK membrane.
# Columbia blood agar = assay: Hemolytic nature on Columbia blood agar; type: cell-based; conditions: 100 μg/mL, 50 μg/mL and 25 μg/mL; 20 μL on Columbia blood agar, 37° C., 24 hours
# Experimental: In addition to determining the antimicrobial efficacy of the compound, an initial test was performed to determine its hemolytic nature. To do so, the compound was suspended in concentrations of 100 μg/mL, 50 μg/mL and 25 μg/mL. Twenty μL of each concentration was placed onto the surface of Columbia blood agar and incubated at 37° C. for 24 hours.
# [7] = system: P. aeruginosa ATCC 27853 biofilm; assay: EBEC on PEEK membranes, 100% eradication (Example 2); type: cell-based, Pseudomonas aeruginosa; conditions: PEEK membrane, eradicate all detectable amounts (100%), listed as PBC-51
# Experimental: as §3
# MRSA [8] = assay: Zones of inhibition on cation adjusted Mueller Hinton agar (Example 2); type: cell-based, methicillin-resistant Staphylococcus aureus; conditions: 50 μL drop on MRSA lawn, 37° C., 24 hours
# Experimental: as §4
structure (smiles),measurement,setting,value
CC(C)(C)OC(=O)NCCCNCCCNCc1cc(CNCCCNCCCN)cc(CNCCCNCCCN)c1 [CZ-51],MBEC,MRSA biofilm [1],< 25 μg/mL and < 47 μM
same,MIC,MRSA [2],~1 µg/mL and ~1.88 µM
same,MBEC,[3],~35 μg/mL and ~65.92 μM
same,EBEC,MRSA biofilm [4],~250 μg/mL and ~470.88 μM
same,concentration at which partial clearing was seen,[5],25 µg/mL
same,concentration at which total clearing was seen,[5],50 µg/mL
same,MIC,P. aeruginosa ATCC 27853,~6 µg/mL and ~11.3 µM
same,biofilm separated from the PEEK membrane by 24 hours,[6],all detectable amounts of biofilm had separated
same,biofilms separated from the PEEK membrane by 4 hours,[6],approximately half
same,time at which biofilms began to separate from the PEEK membranes,[6],≤ 2 h
same,hemolytic activity,Columbia blood agar,none of these concentrations displayed hemolytic activity
same,EBEC,[7],< 100 μg/mL and < 188.33 μM
same,concentration at which total clearing was seen,MRSA [8],10 µg/mL
